According to patent publication US6365616B1, “Methimazole derivatives and tautomeric cyclic thiones to treat autoimmune diseases” (Sentron Medical, Inc., priority 1998, dated 2002):
Like-named read-outs stand apart in the source and are kept apart here. Marks after values point to notes of the source that are not given here.

Assays:
[1] = test system: HLA-DRα class II promoter; assay: Transient transfection CAT assay, HLA-DRα class II promoter chimeras in FRTL-5 cells; assay type: cell-based
Text: Construction of the HLA-DR promoter constructs has also been described as have been their characteristics (Reimold A M, et al., ibid (1993)). Additional CAT constructs were constructed by PCR, using the HLA-DRα-CAT chimera containing −176 to +45 of 5′-flanking region as template and various primers (Montani V. et al., ibid (1998a,b)). For example, a plasmid containing −38 to +45 bp of the 5′-flanking region of HLA-DRα was constructed with the following primers: a 5′ primer with a 5′ Sph I restriction site, 5′-[…]-3′ and a 3′ primer, 5′-[…]-3′, with an Xba I restriction site (Montani V., et al., ibid (1998a,b)). The PCR products were purified by phenol-chloroform extraction, digested with Xba I and Sph I, purified from a 2% agarose gel with Jet Sorb (Genomed, Frederick, Md.), dephosphorylated with calf intestinal alkaline phosphatase (New England Biolabs, Beverly, Mass.), and religated (DNA ligation kit, Takara Biochemical, Inc., Berkeley, Calif.) into the pCAT-Basic Vector (Promega, Madison, Wis.) at the Sph I and Xba I sites as described (Reimold AM, et al., ibid (1993); Montani V., et al., ibid (1998a,b)).
To measure the promoter activity of MHC class II promoter constructs, transient transfections in FRTL-5 cells were performed, using one of the following procedures (Montani V., et al., ibid (1998a, b)). In one, FRTL-5 cells were cultivated in 6H medium to approximately 80% confluency, harvested, washed, and resuspended (1.5×10^7 cells/ml) in 0.85 ml electroporation buffer (272 mM sucrose, 7 mM sodium phosphate buffer pH 7.4, and 1 mM MgCl2). Plasmid DNA was added, 20 μg of the CAT chimera together with 2 μg pRSV-luciferase which is used to measure the efficiency of transfection. Cells were pulsed (330 V; capacitance 25 μfarad), plated (6×10^6 cells/10 cm dish), and cultured in 6H medium plus 5% calf serum supplemented or not with γ-IFN. At the times noted, cells were harvested for CAT and luciferase assays. The second procedure differed as follows. FRTL-5 cells were grown to 80% confluency in 6H medium, then maintained 6 days in 5H medium plus 5% calf serum. Cells were returned to 6H medium for 12 hours, transfected as described above, and maintained in 6H medium plus 5% calf serum for twelve hours. The medium was then changed to fresh 5H medium with 5% calf serum supplemented or not with γ-IFN. […] CAT activity was measured as described above and values were normalized to luciferase activity measured using the Promega (Madison, Wis.) assay system.
To test the effect of MMI, MMI derivatives or tautomeric cyclic thiones on γ-IFN-increased class II expression in FRTL-5 thyroid cells, the following procedure was used. Transient transfections with the −137 bp or −176 bp DRα-CAT chimeras were performed as described and treated with 100 U/ml γ-IFN for the noted times starting 12 hours after transfection. […]
In this experiment, like previous experiments, transient transfections were performed in FRTL-5 cells grown to 80% confluency in 6H medium, maintained 6 days in SH medium, and returned to 6H medium for 12 h before transfection as described. Twelve hours later, the medium was changed to fresh 5H medium, supplemented or not with 100 U/ml γ-IFN and/or 5 mM MMI. CAT activity was measured 48 h thereafter. […] Results are the mean ±SD of 3 separate experiments.

MHC class II RNA = assay: Northern analysis of MHC class II RNA levels in FRTL-5 cells; assay type: cell-based, rat; conditions: 100 U/ml γ-interferon, 6H medium, 40 hours
thyroglobulin RNA = assay: Northern analysis of thyroglobulin RNA levels in FRTL-5 cells; assay type: cell-based, rat; conditions: for % increase in TG RNA expression: 1 mM, 6H medium, 40 hours
(NZB x NZW)F1 mice = assay: Prevention of proteinuria (SLE model) in female (NZB x NZW)F1 mice; assay type: in vivo; conditions: for Animals with proteinuria, 30-500 (mg/dl proteinuria) / Animals with proteinuria, >500 (mg/dl proteinuria) / Animals with proteinuria, Neg-Trace (mg/dl proteinuria) / development of proteinuria at 7.5 mos: oral; for Animals with proteinuria, 30-500 (mg/dl proteinuria) / Animals with proteinuria, >500 (mg/dl proteinuria) / Animals with proteinuria, Neg-Trace (mg/dl proteinuria): 0.05% MMI, 0.01% 5-phenylmethimazole, 0.05% 2-mercaptoimidazole; for significant numbers of immune complexes in kidneys (FIG. 15): immunohistology of frozen kidney sections; for development of proteinuria at 7.5 mos: compound 10 at a fifth the MMI concentration
Text: Female (NZB x NZW)F1 mice were obtained from Jackson Labs. Animals were followed with AMES 2855 Uristix (Miles) to semiquantitatively measure proteinuria. Proteinuria was taken as a measure of development of SLE and MMI suppression of proteinuria as suppression of renal complexes in kidney (Mozes et al., J. Clin Immunology 18:106-113 (1998)). At 7-8 mos. mice develop proteinuria reflecting renal disease. Treatment was from 2 mos to 6 mos of age. Treatment was oral. Each group had 8 animals to start.
In this experiment, immunohistology was performed in a blind fashion on 5 μm thick frozen kidney sections which were fixed and stained with FITC-conjugated goat antibodies to immunoglobulin G (γ chain specific) as described (Mozes, et al., Science 261:91-93 (1993); Mozes, E., et al., ibid (1998)). Compound 10, a tautomeric cyclic thione, and MMI are effective in preventing SLE in this experimental model.
Death of some animals in this experiment occurred for technical reasons, i.e. flooding of cages, handling, etc., in the last 2 mos. However, losses in the control group were similar to experimental groups. MMI, 2-mercaptoimidazole, and Compound 10 treatments were administered during the period between 2 and 6.25 months of age.

NOD mice = assay: Prevention of glucosuria and diabetes in female NOD mice; assay type: in vivo, mouse; conditions: 5-phenylmethimazole at a fifth the MMI concentration
Text: Female NOD mice were also obtained from Jackson Labs, along with control mice from which the strain was developed (Makino et al., Exp. Anim. 29:1-13 (1980); Wicker, L. S., et al., Diabetes 35:855-860 (1986)). Animals showing urine Tes-Tape positivity greater than 1 + were considered positive and to have diabetes (Wicker, L. S., et al., ibid (1986)). At 8-16 weeks, […] of NOD mice develop glucosuria and diabetes according to the literature (Wicker, L. S., et al., ibid (1986)).
Table 20 presents results of the ability of Female NOD mice (5 animals were in each group) to develop glucosuria and diabetes when treated with MMI and compound 10 (5-phenylmethimazole) at a fifth the MMI concentration, by comparison to no treatment or treatment with 2-mercaptoimidazole. Mice were from Jackson Labs in this experiment. Animals showing urine Tes-Tape positivity greater than 1+ were considered positive and to have diabetes.
Compound 10 and MMI are therefore effective in preventing diabetes in the NOD mouse example of diabetes.

[2] = FRTL-5, 10 μM, 100 U/ml γ-interferon, 6H medium, read-out: % inhibition of IFN-increased p(−137)CAT class II promoter activity
[3] = FRTL-5, 100 μM, 100 U/ml γ-interferon, 6H medium, read-out: % inhibition of IFN-increased p(−137)CAT class II promoter activity
[4] = FRTL-5, 0.5 mM, 100 U/ml γ-interferon, 6H medium, read-out: % inhibition of IFN-increased p(−137)CAT class II promoter activity
[5] = FRTL-5, 5 mM, 100 U/ml γ-interferon, 6H medium, read-out: % inhibition of IFN-increased p(−137)CAT class II promoter activity
[6] = 10 μM, 100 U/ml γ-interferon, 6H medium
[7] = 100 μM, 100 U/ml γ-interferon, 6H medium
[8] = 0.5 mM, 100 U/ml γ-interferon, 6H medium
[9] = 5 mM, 100 U/ml γ-interferon, 6H medium
[10] = FRTL-5, read-out: % inhibition of IFN-increased p(−137)CAT class II promoter activity

| SMILES | inhibition at 10 µM [1, 2] [%] | inhibition at 100 µM [1, 3] [%] | inhibition at 500 µM [1, 4] [%] | inhibition at 5000 µM [1, 5] [%] | % inhibition of class II RNA expression (MHC class II RNA; 100 μM) | % inhibition of class II RNA expression (MHC class II RNA; 1 mM) [%] | % increase in TG RNA expression (thyroglobulin RNA) [%] | increase of TG RNA levels compared with MMI (thyroglobulin RNA; Table 17, 1 mM) | Animals with proteinuria, 30-500 (mg/dl proteinuria) ((NZB x NZW)F1 mice; 6 mos) | Animals with proteinuria, >500 (mg/dl proteinuria) ((NZB x NZW)F1 mice; 6 mos) | Animals with proteinuria, Neg-Trace (mg/dl proteinuria) ((NZB x NZW)F1 mice; 6 mos) | Animals with proteinuria, 30-500 (mg/dl proteinuria) ((NZB x NZW)F1 mice; 7.5 mos) | Animals with proteinuria, >500 (mg/dl proteinuria) ((NZB x NZW)F1 mice; 7.5 mos) | Animals with proteinuria, Neg-Trace (mg/dl proteinuria) ((NZB x NZW)F1 mice; 7.5 mos) | development of proteinuria at 7.5 mos ((NZB x NZW)F1 mice) | development of glucosuria and diabetes by 12 weeks (NOD mice) | also measured |
| --- | --- | --- | --- | --- | --- | --- | --- | --- | --- | --- | --- | --- | --- | --- | --- | --- | --- |
| Cc1cnc(S)n1C [Compound 9, 5-Methylmethimazole] | 0 | 0 | 14 ± 12 | 44 ± 18 |  |  |  |  |  |  |  |  |  |  |  |  |  |
| Cc1ncc([N+](=O)[O-])n1CCO [Compound 2, 2-Methyl-5-nitro-1-imidazole ethanol] | 0 | 0 | 55 ± 10 | 80 ± 4 | 11 ± 10% | 45 ± 13 |  |  |  |  |  |  |  |  |  |  |  |
| CSc1nccn1C [Compound 7, S-Methylmethimazole] | 0 | 20 ± 15 | 75 ± 6 | 84 ± 15 | 22 ± 17% | 62 ± 14 | 122 ± 14 | no comparable increase |  |  |  |  |  |  |  |  |  |
| Cn1c(-c2ccccc2)cnc1S [Compound 10, 5-Phenylmethimazole] | 45 ± 17 | 88 ± 15 | 95 ± 5 |  | 75 ± 15% | 87 ± 4 |  | no comparable increase | 0 of 8 | 0 of 8 | 8 of 8 | 1 of 6 | 0 of 6 | 5 of 6* | significantly prevented proteinuria | prevented glucosuria | significant numbers of immune complexes in kidneys (FIG. 15) ((NZB x NZW)F1 mice): not true; toxicity in vivo ((NZB x NZW)F1 mice; one-fifth the MMI concentration, NZB and NOD mouse experiments): nontoxic |
| Sc1ncc[nH]1 [Compound 3, 2-Mercaptoimidazole] |  |  |  |  |  |  |  |  | 4 of 7 | 0 of 7 | 3 of 7 | 3 of 6 | 3 of 6 | 0 of 6 | developed significant proteinuria | developed diabetes | % inhibition of IFN-increased p(−137)CAT class II promoter activity [1, 6]: None; % inhibition of IFN-increased p(−137)CAT class II promoter activity [1, 7]: None; % inhibition of IFN-increased p(−137)CAT class II promoter activity [1, 8]: None; % inhibition of IFN-increased p(−137)CAT class II promoter activity [1, 9]: None |
| Cn1ccn(C)c1=S [Compound 8, N-Methylmethimazole] |  |  |  |  | 32 ± 5% | 59 ± 12 | 129 ± 7 | no comparable increase |  |  |  |  |  |  |  |  | % inhibition of IFN-increased p(−137)CAT class II promoter activity [1, 6]: 0%; % inhibition of IFN-increased p(−137)CAT class II promoter activity [1, 7]: 43 ± 9%; % inhibition of IFN-increased p(−137)CAT class II promoter activity [1, 8]: 79 ± 11%; % inhibition of IFN-increased p(−137)CAT class II promoter activity [1, 9]: 88 ± 10% |
| Sc1nc2ccccc2[nH]1 [Compound 4, 2-Mercaptobenzimidazole] |  |  |  |  |  |  |  |  |  |  |  |  |  |  |  |  | inhibition at 10 µM [1, 10]: 0%; inhibition at 100 µM [1, 10]: 0%; inhibition at 500 µM [1, 10]: 29 ± 12%; inhibition at 5000 µM [1, 10]: 73 ± 14% |
| Cc1ccc2[nH]c(S)nc2c1 [Compound 6, 2-Mercapto-5-methylbenzimidazole] |  |  |  | 44 ± 8 |  |  |  |  |  |  |  |  |  |  |  |  |  |
| Cn1ccnc1S [Compound 1, 1-Methylimidazole-2-thiol] | 0 | 0 | 44 ± 6 | 87 ± 9 | None | 29 ± 9 | 207 ± 10 |  | 0 of 8 | 0 of 8 | 8 of 8 | 2 of 5 | 0 of 5 | 3 of 5 | significantly prevented proteinuria | prevented glucosuria | increase of TG RNA levels (thyroglobulin RNA; Table 17, 1 mM): ~2 fold; significant numbers of immune complexes in kidneys (FIG. 15) ((NZB x NZW)F1 mice): not true |
| O=[N+]([O-])c1ccc2[nH]c(S)nc2c1 [Compound 5, 2-Mercapto-5-nitrobenzimidazole] |  |  |  | 39 ± 13 |  |  |  |  |  |  |  |  |  |  |  |  |  |
